Columns and labels:
pancreatic cancer = pancreatic cancer patients, cited from earlier work
[1] = weight monitoring in mouse xenograft model; assay type: in vivo, BALB/c mice; conditions: FIG. 6B; PANC-1 model; dose: docetaxel standard, 20 mg/kg
Experimental: (§1) Normally, non-treated group is injected with saline (NaCl solution) in anti-cancer efficacy study.

[2] = test system: PANC-1 pancreatic carcinoma tumors; assay: anticancer efficacy in mouse xenograft model (tumor growth); assay type: in vivo, BALB/c mice
Experimental: as §1

L929 = assay: cell viability assay on L929 normal cell line; assay type: cell-based; conditions: FIG. 5B; normal mouse fibroblast cell line

Compound: O=c1[nH]cc(F)c(=O)[nH]1 [5-FU, 5-fluorouracil]
- survival rate, gemcitabine compared to 5-FU (pancreatic cancer): 4.41 months
- median overall survival rate compared to supportive care (pancreatic cancer; supportive care 2.5 months): 6 moths

Compound: CC(=O)O[C@@]12CO[C@@H]1C[C@H](O)[C@@]1(C)C(=O)[C@H](O)C3=C(C)[C@@H](OC(=O)[C@H](O)[C@@H](NC(=O)OC(C)(C)C)c4ccccc4)C[C@@](O)([C@@H](OC(=O)c4ccccc4)[C@H]21)C3(C)C [DTX, docetaxel]
- body weight loss [1]: significant body weight loss was observed
- tumor growth (mean tumor volume) ([2]; FIG. 6A; PANC-1 model; dose: docetaxel standard, 20 mg/kg; P<0.01 vs negative control): significant inhibition in tumor growth
- cytotoxicity toward normal cell line L929 (L929): low cytotoxicity

Compound: Nc1ccn([C@@H]2O[C@H](CO)[C@@H](O)C2(F)F)c(=O)n1 [gemcitabine]
- survival rate, gemcitabine compared to 5-FU (pancreatic cancer): 5.65 months

Compound: docetaxel-aconitic anhydride conjugate [A3Tx]
- tumor growth (mean tumor volume) ([2]; FIG. 6A, PANC-1 model, dose: docetaxel standard, 20 mg/kg, P<0.01 vs negative control): significant inhibition in tumor growth
- tumor growth (mean tumor volume) ([2]; FIG. 6A, PANC-1 model, dose: docetaxel standard, 20 mg/kg, P<0.01 vs negative control, listed as A3TX): significantly delays tumor growth
